The record followed here is patent US6469056B1, “Pharmaceutically active compounds, their preparation and use as ECE-inhibitors” (Abbott Laboratories, priority 1997, dated 2002).

Each structure is given as a SMILES string.

What all share (format): biochemical
Assay [1] concerns the target T1, recombinant human ECE from CHO cells (Homo sapiens, UniProt P42892).
T1 construct: made in house; host or cells: CHO cells
T1 sequence (P42892 1-770): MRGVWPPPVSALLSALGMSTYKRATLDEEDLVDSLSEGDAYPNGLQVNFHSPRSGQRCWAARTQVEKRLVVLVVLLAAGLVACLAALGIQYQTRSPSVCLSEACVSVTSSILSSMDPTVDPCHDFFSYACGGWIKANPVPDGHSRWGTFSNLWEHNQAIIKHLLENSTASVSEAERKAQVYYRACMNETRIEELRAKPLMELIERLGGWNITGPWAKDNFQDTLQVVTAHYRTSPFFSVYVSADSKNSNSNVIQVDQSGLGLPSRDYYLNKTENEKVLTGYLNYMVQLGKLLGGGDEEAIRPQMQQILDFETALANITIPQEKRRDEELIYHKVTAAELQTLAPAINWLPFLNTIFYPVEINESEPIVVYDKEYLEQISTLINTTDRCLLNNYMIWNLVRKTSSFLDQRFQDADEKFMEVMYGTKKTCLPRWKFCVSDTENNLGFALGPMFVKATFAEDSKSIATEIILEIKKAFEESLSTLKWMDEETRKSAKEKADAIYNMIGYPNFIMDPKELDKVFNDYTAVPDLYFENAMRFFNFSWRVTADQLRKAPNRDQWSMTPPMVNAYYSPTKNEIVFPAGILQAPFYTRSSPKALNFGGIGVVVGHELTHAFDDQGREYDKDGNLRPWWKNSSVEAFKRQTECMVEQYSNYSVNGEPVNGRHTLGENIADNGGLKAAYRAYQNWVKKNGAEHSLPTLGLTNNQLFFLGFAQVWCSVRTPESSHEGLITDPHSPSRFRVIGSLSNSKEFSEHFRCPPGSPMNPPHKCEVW
Description: ECE inhibitor test, IC50 determination (Big ET1 cleavage, HPLC). The conditions noted are these: Big ET1 substrate, 1 hour at 37° C., pH 7.2. On the procedure:
ECE Inhibitor Tests, IC50 Determinations
Inhibitors of endothelin converting enzyme (ECE) were tested using recombinant human ECE from CHO cells as described in Schmidt et al. (FEBS Letters 356, 1994: 238-243).
The enzyme preparations employed were, after membrane isolation and solubilization, further purified by Mono-Q chromatography and WGA lectin chromatography. The preparations obtained in this way contained no interfering foreign protease activities and had specific activities in the range 1-20 mU/mg. 5 μl of this enzyme solution were preincubated with 495 μl of test buffer (100 mM Pi, 500 mM NaCl, 0,1 mg/ml BSA pH 7.2) and with in each case 5 μl of appropriately concentrated solutions (10^−3 M, 10^−4 M, 10^−5 M etc.) of the inhibitors in the test buffer for 10 minutes. 50 μl aliquots were mixed with 5 μl of 2×10^−3 M Big ET1 solution (=Big Endothelin1) in 0.02% acetic acid. The mixtures were stopped after 1 hour at 37° C. by adding 150 μl of 0.5% TFA (=trifluoroacetic acid) in water, and centrifuged at 10000×g for 5 minutes, and the enzyme reaction was determined by measuring the endothelin formed by means of reversed phase HPLC as described in Takada et al. (Biochem. Biophys. Res. Comm. 176, 1991, 860), K. Ohnaka et al. (Biochem. Biophys. Res. Commun. 168, 1990, 1128). An inhibition plot was produced from the values of the inhibition at the various inhibitor concentrations, and the half-maximum inhibition (IC50) was read off as a measure of the strength of the inhibitory effect.

In assay [2] the target is ACE (angiotensin converting enzyme) (Homo sapiens, UniProt P12821). Description: ACE inhibition.
ACE (angiotensin converting enzyme), sequence (P12821 30-1306, species assumed): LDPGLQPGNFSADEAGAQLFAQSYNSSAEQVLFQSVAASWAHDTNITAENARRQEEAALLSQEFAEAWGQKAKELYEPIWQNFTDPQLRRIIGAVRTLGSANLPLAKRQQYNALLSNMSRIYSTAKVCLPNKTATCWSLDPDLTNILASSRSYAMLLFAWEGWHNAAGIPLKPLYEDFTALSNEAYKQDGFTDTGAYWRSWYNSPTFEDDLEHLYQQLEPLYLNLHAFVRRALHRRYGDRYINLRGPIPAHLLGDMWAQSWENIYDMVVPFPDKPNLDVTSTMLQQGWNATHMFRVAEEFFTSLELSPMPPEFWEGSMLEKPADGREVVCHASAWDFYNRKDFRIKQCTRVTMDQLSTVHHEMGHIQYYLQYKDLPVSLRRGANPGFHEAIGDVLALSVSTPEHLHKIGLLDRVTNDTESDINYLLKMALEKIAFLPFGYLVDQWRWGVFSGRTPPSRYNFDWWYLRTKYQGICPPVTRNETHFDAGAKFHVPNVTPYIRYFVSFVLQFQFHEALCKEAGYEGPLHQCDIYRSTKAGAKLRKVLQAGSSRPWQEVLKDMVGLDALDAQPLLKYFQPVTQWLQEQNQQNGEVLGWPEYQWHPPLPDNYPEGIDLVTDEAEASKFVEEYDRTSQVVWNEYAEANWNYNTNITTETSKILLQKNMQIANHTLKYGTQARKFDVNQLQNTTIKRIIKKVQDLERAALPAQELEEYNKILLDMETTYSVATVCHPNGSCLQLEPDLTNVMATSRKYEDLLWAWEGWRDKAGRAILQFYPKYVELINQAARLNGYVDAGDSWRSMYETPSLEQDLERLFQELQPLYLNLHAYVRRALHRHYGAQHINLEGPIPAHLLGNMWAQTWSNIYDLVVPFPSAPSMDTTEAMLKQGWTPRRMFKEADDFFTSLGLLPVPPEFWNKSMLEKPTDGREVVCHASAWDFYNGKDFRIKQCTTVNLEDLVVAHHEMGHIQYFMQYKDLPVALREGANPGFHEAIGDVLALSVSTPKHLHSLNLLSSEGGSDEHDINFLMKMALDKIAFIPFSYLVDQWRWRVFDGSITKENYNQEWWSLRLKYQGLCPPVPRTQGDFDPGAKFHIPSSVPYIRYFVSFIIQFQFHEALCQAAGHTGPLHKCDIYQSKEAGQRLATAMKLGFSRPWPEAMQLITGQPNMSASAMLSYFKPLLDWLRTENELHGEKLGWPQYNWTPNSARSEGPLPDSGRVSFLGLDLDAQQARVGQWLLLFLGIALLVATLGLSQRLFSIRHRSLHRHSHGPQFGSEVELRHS
The target in assay [3] is NEP 24.11 (neutral endopeptidase 24.11) (Homo sapiens, UniProt P08473). Kind of assay: NEP 24.11 inhibition.
NEP 24.11 (neutral endopeptidase 24.11), sequence (P08473 whole entry, species assumed): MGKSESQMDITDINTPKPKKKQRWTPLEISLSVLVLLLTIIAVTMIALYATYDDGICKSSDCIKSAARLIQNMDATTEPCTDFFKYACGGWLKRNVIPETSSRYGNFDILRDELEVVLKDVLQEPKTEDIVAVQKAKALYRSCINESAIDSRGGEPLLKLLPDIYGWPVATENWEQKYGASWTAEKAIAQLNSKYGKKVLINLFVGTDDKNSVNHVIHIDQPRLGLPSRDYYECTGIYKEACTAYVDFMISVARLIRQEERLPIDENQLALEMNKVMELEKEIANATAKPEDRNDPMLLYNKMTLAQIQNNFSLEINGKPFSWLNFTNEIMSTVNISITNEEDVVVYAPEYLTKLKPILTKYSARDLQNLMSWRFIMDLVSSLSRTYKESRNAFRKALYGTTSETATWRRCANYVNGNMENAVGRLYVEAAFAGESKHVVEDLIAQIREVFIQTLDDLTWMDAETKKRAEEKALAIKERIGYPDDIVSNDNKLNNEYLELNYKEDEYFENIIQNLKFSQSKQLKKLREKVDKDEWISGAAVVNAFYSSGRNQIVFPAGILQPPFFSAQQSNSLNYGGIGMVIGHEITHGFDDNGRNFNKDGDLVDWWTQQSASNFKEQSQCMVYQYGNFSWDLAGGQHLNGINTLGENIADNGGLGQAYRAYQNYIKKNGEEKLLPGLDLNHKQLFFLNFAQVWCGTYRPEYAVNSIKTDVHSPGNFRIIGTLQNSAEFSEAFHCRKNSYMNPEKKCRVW

As for `O=C(N[C@@H](Cc1ccccc1)CN(C(=O)c1ccc(Cl)s1)[C@@H](Cc1ccccc1)C(=O)O)OCC1c2ccccc2-c2ccccc21` [Compound 1a], the IC50 (commonly the concentration that inhibits the measured activity by half) is 2 µM in assay [1], more than 100 µM in assay [2] and more than 100 µM in assay [3].

Turning to `CC(C)(C)SSC[C@@H](CN(C(=O)c1ccc(Cl)s1)[C@@H](Cc1ccccc1)C(=O)O)NC(=O)OCC1c2ccccc2-c2ccccc21` [Compound 1b], the IC50 in assay [1] was 3 µM; in assay [2] it was more than 100 µM; in assay [3], more than 100 µM.

Turning to `O=C(N[C@@H](Cc1ccccc1)CN(C(=O)c1ccc2ccccc2c1)[C@@H](Cc1ccccc1)C(=O)O)OCC1c2ccccc2-c2ccccc21` [Compound 1e], the IC50 in assay [1] is 4 µM; in assay [2], more than 100 µM; in assay [3] it was more than 100 µM.
